Structures are written as SMILES.

The nature of the first series: Solubility test in water (HPLC). The series is classed as physicochemical. Particulars: stirred at constant temperature for 30 min. On the procedure:
The solubility of the salt of the compound of Formula (I) of the present invention was determined by the following method:
a) About 200 mg of the salt of the compound of Formula (I) was accurately weighed, dissolved in 200 ml of an aqueous solution, stirred at a constant temperature for 30 min, and allowed to stand. The supernatant was centrifuged, and then the supernatant of the centrifugate was taken and used as a test solution.
b) About 200 mg of the compound of Formula (I) was accurately weighed, dissolved in aqueous methanol, and quantitatively diluted into a solution containing 0.02 mg of free base per 1 ml.
The solution was used as a reference solution.
The table below compares the solubilities of the compound of Formula (I) and its various forms of salts.
In turn, `O=C(c1cc(Cc2n[nH]c(=O)c3ccccc23)ccc1F)N1CCN(c2ccc3[nH]cnc3n2)CC1.O=S(=O)(O)c1ccccc1` [4-(3-(4-(1H-imidazo[4,5-b]pyridine-5-yl)piperazine-1-carbonyl)-4-fluorobenzyl)phthalazine-1(dihydro)-one benzenesulfonate] registered a Solubility in water of 230 µg/mL. Same read-out and setting: to `Cl.O=C(c1cc(Cc2n[nH]c(=O)c3ccccc23)ccc1F)N1CCN(c2ccc3[nH]cnc3n2)CC1` [4-(3-(4-(1H-imidazo[4,5-b]pyridine-5-yl)piperazine-1-carbonyl)-4-fluorobenzyl)phthalazine-1(dihydro)-one hydrochloride] belongs 340 µg/mL. On the same count and under the same terms, to `O=C(c1cc(Cc2n[nH]c(=O)c3ccccc23)ccc1F)N1CCN(c2ccc3[nH]cnc3n2)CC1.O=S(=O)(O)CCO` [4-(3-(4-(1H-imidazo[4,5-b]pyridine-5-yl)piperazine-1-carbonyl)-4-fluorobenzyl)phthalazine-1(dihydro)-one hydroxyethanesulfonate] belongs 310 µg/mL; to `Cc1ccc(S(=O)(=O)O)cc1.O=C(c1cc(Cc2n[nH]c(=O)c3ccccc23)ccc1F)N1CCN(c2ccc3[nH]cnc3n2)CC1` [4-(3-(4-(1H-imidazo[4,5-b]pyridine-5-yl)piperazine-1-carbonyl)-4-fluorobenzyl)phthalazine-1(dihydro)-one p-toluenesulfonate], 40 µg/mL; to `CS(=O)(=O)O.O=C(c1cc(Cc2n[nH]c(=O)c3ccccc23)ccc1F)N1CCN(c2ccc3[nH]cnc3n2)CC1` [4-(3-(4-(1H-imidazo[4,5-b]pyridine-5-yl)piperazine-1-carbonyl)-4-fluorobenzyl)phthalazine-1(dihydro)-onemethanesulfonate], 300 µg/mL.

The series is the same for the next values; noted with them: thermodynamic from solid, stirred at constant temperature for 30 min.
Regarding `O=C(c1cc(Cc2n[nH]c(=O)c3ccccc23)ccc1F)N1CCN(c2ccc3[nH]cnc3n2)CC1` [Formula I, 4-(3-(4-(1H-imidazo[4,5-b]pyridine-5-yl)piperazine-1-carbonyl)-4-fluorobenzyl)phthalazine-1(dihydro)-one], the solubility at 30 min came out at 1 µg/mL.

(Values after patent US10874667B2, “Pharmaceutical salt of antitumor heterocyclic imidazole compound” (SHANGHAI HUILUN LIFE SCIENCE & TECHNOLOGY CO., LTD., priority 2016, dated 2020).)
